Experimental data: US20260284201A1, “COMPOSITIONS AND METHODS FOR TREATING TENDON AND BONE INJURIES” (The United States Government as represented by the …, priority 2023, published 2026)

What was measured:
[1] = system: rat rotator cuff repairs; conditions: cited from earlier work
[2] = system: osteoclasts; conditions: cited from earlier work
[3] = system: canine tendon-to-bone healing; conditions: cited from earlier work
[4] = system: osteoporotic rats; conditions: cited from earlier work
[5] = system: osteoporotic mouse model; conditions: 1.25 mg/kg intravenously; cited from earlier work
[6] = system: mice in space; assay: Bone volume among mice in space (unpublished data); format: in vivo; conditions: 10 mg/kg once per week
[7] = system: fracture healing; conditions: 1.25 mg/kg systemically once per week; cited from earlier work

O=P(O)(O)C(O)(Cn1ccnc1)P(=O)(O)O [zolendronate]
tendon-to-bone healing [1]: negative effects on tendon-to-bone healing

CC(O)(P(=O)(O)O)P(=O)(O)O [etidronate]
inhibition of the function of osteoclasts [2]: do not inhibit the function of osteoclasts

NCCCC(O)(P(=O)(O)O)P(=O)(O)O [alendronate]
incidence of suture pull through tendon [3]: lower incidence of suture pull through tendon | ultimate load to failure [3]: improved ultimate load to failure

O=P(O)(O)C(O)(Cc1cccnc1)P(=O)(O)O [risedronate]
rotator cuff healing [4]: beneficial to rotator cuff healing

methylhydroxyl diphosphonate
inhibition of the function of osteoclasts [2]: do not inhibit the function of osteoclasts

B1: rhNELL-1: recombinant human NELL-1 (protein, UniProt Q92832 22-810, looked up)
Protein kinase C-binding …: FGMDPDLQMDIVTELDLVNTTLGVAQVSGMHNASKAFLFQDIEREIHAAPHVSEKLIQLFRNKSEFTILATVQQKPSTSGVILSIRELEHSYFELESSGLRDEIRYHYIHNGKPRTEALPYRMADGQWHKVALSVSASHLLLHVDCNRIYERVIDPPDTNLPPGINLWLGQRNQKHGLFKGIIQDGKIIFMPNGYITQCPNLNHTCPTCSDFLSLVQGIMDLQELLAKMTAKLNYAETRLSQLENCHCEKTCQVSGLLYRDQDSWVDGDHCRNCTCKSGAVECRRMSCPPLNCSPDSLPVHIAGQCCKVCRPKCIYGGKVLAEGQRILTKSCRECRGGVLVKITEMCPPLNCSEKDHILPENQCCRVCRGHNFCAEGPKCGENSECKNWNTKATCECKSGYISVQGDSAYCEDIDECAAKMHYCHANTVCVNLPGLYRCDCVPGYIRVDDFSCTEHDECGSGQHNCDENAICTNTVQGHSCTCKPGYVGNGTICRAFCEEGCRYGGTCVAPNKCVCPSGFTGSHCEKDIDECSEGIIECHNHSRCVNLPGWYHCECRSGFHDDGTYSLSGESCIDIDECALRTHTCWNDSACINLAGGFDCLCPSGPSCSGDCPHEGGLKHNGQVWTLKEDRCSVCSCKDGKIFCRRTACDCQNPSADLFCCPECDTRVTSQCLDQNGHKLYRSGDNWTHSCQQCRCLEGEVDCWPLTCPNLSCEYTAILEGECCPRCVSDPCLADNITYDIRKTCLDSYGVSRLSGSVWTMAGSPCTTCKCKNGRVCCSVDFECLQNN
bone formation [5]: lead to bone formation

B2: BP-NELL-1-PEG: NELL-1-PEG covalently bound to BP molecules (conjugate, UniProt Q92832 22-810, looked up)
Protein kinase C-binding …: B1 Protein kinase C-binding …
modifications: PEG; bisphosphonate conjugate
bone volume [6]: preserve bone volume

B3: NELL-1-PEG: chemically modified version of NELL-1 protein using polyethylene glycol (PEGylation) (protein, UniProt Q92832 22-810, looked up)
Protein kinase C-binding …: B1 Protein kinase C-binding …
modifications: PEG
ectopic bone formation, radiographically or on organ retrieval analysis [7]: no evidence of ectopic bone formation | fracture healing [7]: enhance fracture healing | toxicology testing [7]: no abnormalities detected on toxicology testing
